Test system: 3D7-MR4 trophozoite parasite-infected RBCs
Assay: Metabolomic profiling (hydrophilic metabolite changes, UHPLC-MS)
Type: cell-based, Plasmodium falciparum

Question: How did the “changes within the set of metabolites detected (low fold change group)” value (10 × IC50^72h, 2.5 hr, trophozoites) turn out when CC(C)(C)NCc1cc(Nc2ccnc3cc(Cl)ccc23)c2c(c1O)CCCC2 [Naphtoquine, Naphthoquine, reference compound] was run?
Answer: Its value is “did not induce major changes”.

Question: And the “Log2(fold changes) 1_3-Bisphosphoglyceric acid” value (metabolite 1_3-Bisphosphoglyceric acid, log2 fold change)?
Answer: The value was 0.0605.

Question: What about the “Log2(fold changes) 2-Hydroxy-2-methylbutanedioic acid” value (metabolite 2-Hydroxy-2-methylbutanedioic acid, log2 fold change) of the same molecule?
Answer: The value was 0.0920.

Question: What about the “Log2(fold changes) 2-Isopropylmalic acid” value (metabolite 2-Isopropylmalic acid, log2 fold change) of the same molecule?
Answer: Its value is 0.0000.

Question: What about the “Log2(fold changes) 2-dehydro-D-gluconate” value (metabolite 2-dehydro-D-gluconate, log2 fold change) of the same molecule?
Answer: Its value is -0.0605.

Question: What about the “Log2(fold changes) 2-oxo-4-methylthiobutanoate” value (metabolite 2-oxo-4-methylthiobutanoate, log2 fold change) of the same molecule?
Answer: Its value is 0.0000.

Question: What about the “Log2(fold changes) 2_3-Diphosphoglyceric acid” value (metabolite 2_3-Diphosphoglyceric acid, log2 fold change) of the same molecule?
Answer: The value was 0.0000.

Question: And the “Log2(fold changes) 3-phosphoglycerate” value (metabolite 3-phosphoglycerate, log2 fold change)?
Answer: Its value is 0.2077.

Question: And the “Log2(fold changes) 3-phosphoserine” value (metabolite 3-phosphoserine, log2 fold change)?
Answer: The value was -0.0700.

Question: And the “Log2(fold changes) 4-Pyridoxic acid” value (metabolite 4-Pyridoxic acid, log2 fold change)?
Answer: The value was 0.2073.

Question: What about the “Log2(fold changes) 4-aminobutyrate” value (metabolite 4-aminobutyrate, log2 fold change) of the same molecule?
Answer: Its value is 0.0263.

Question: And the “Log2(fold changes) 4-phosphopantetheine” value (metabolite 4-phosphopantetheine, log2 fold change)?
Answer: Its value is 0.0000.

Question: What about the “Log2(fold changes) 4-phosphopantothenate” value (metabolite 4-phosphopantothenate, log2 fold change) of the same molecule?
Answer: Its value is -0.0475.

Question: And the “Log2(fold changes) 5-aminopentanoic acid” value (metabolite 5-aminopentanoic acid, log2 fold change)?
Answer: Its value is 0.0000.

Question: And the “Log2(fold changes) 5-methyl-THF” value (metabolite 5-methyl-THF, log2 fold change)?
Answer: The value was 0.0000.

Question: What about the “Log2(fold changes) 5-phosphoribosyl-1-pyrophosphate” value (metabolite 5-phosphoribosyl-1-pyrophosphate, log2 fold change) of the same molecule?
Answer: The value was 0.0000.

Question: What about the “Log2(fold changes) 6-phospho-D-gluconate” value (metabolite 6-phospho-D-gluconate, log2 fold change) of the same molecule?
Answer: Its value is 0.1085.

Question: What about the “Log2(fold changes) ADP-D-glucose” value (metabolite ADP-D-glucose, log2 fold change) of the same molecule?
Answer: The value was 0.0398.

Question: And the “Log2(fold changes) Acetyl-glycine” value (metabolite Acetyl-glycine, log2 fold change)?
Answer: The value was 0.0000.

Question: What about the “Log2(fold changes) Acetyllysine” value (metabolite Acetyllysine, log2 fold change) of the same molecule?
Answer: The value was -0.1423.

Question: And the “Log2(fold changes) Aminoadipic acid” value (metabolite Aminoadipic acid, log2 fold change)?
Answer: The value was 0.0000.

Question: What about the “Log2(fold changes) CDP” value (metabolite CDP, log2 fold change) of the same molecule?
Answer: Its value is -0.5923.

Question: And the “Log2(fold changes) CDP-choline” value (metabolite CDP-choline, log2 fold change)?
Answer: Its value is -0.0652.

Question: What about the “Log2(fold changes) CDP-ethanolamine” value (metabolite CDP-ethanolamine, log2 fold change) of the same molecule?
Answer: The value was -0.0101.

Question: What about the “Log2(fold change) of CMP” value (metabolite CMP) of the same molecule?
Answer: Its value is -0.1194.

Question: And the “Log2(fold change) of CTP” value (metabolite CTP)?
Answer: The value was 0.1369.

Question: And the “Log2(fold changes) Citraconic acid” value (metabolite Citraconic acid, log2 fold change)?
Answer: Its value is 0.0000.

Question: And the “Log2(fold change) of D-glucarate” value (metabolite D-glucarate)?
Answer: The value was 0.1211.

Question: What about the “Log2(fold change) of D-gluconate” value (metabolite D-gluconate) of the same molecule?
Answer: The value was 0.1168.

Question: And the “Log2(fold change) of D-glucosamine-1/6-phosphate” value (metabolite D-glucosamine-1/6-phosphate)?
Answer: Its value is 0.0000.

Question: What about the “Log2(fold change) of D-sedoheptulose-1/7-phosphate” value (metabolite D-sedoheptulose-1/7-phosphate) of the same molecule?
Answer: Its value is -0.1410.

Question: And the “Log2(fold change) of DL-Pipecolic Acid” value (metabolite DL-Pipecolic Acid)?
Answer: The value was 0.1435.

Question: And the “Log2(fold change) of DLH” value (metabolite DLH)?
Answer: Its value is 0.3114.

Question: And the “Log2(fold change) of DLS” value (metabolite DLS)?
Answer: The value was 0.0979.

Question: And the “Log2(fold change) of Decanoyl-CoA” value (metabolite Decanoyl-CoA)?
Answer: The value was 0.0000.

Question: What about the “Log2(fold change) of EV” value (metabolite EV) of the same molecule?
Answer: Its value is -0.1292.

Question: And the “Log2(fold change) of FAD” value (metabolite FAD)?
Answer: Its value is 0.0352.

Question: What about the “Log2(fold change) of FMN” value (metabolite FMN) of the same molecule?
Answer: The value was 0.1758.

Question: What about the “Log2(fold change) of G3P/DHAP” value (metabolite G3P/DHAP) of the same molecule?
Answer: The value was 0.0000.

Question: And the “Log2(fold change) of GDP” value (metabolite GDP)?
Answer: The value was -0.5345.

Question: What about the “Log2(fold change) GMP” value (metabolite GMP) of the same molecule?
Answer: The value was 0.0470.

Question: What about the “Log2(fold change) GTP” value (metabolite GTP) of the same molecule?
Answer: The value was 0.0942.

Question: What about the “Log2(fold change) HVDD” value (metabolite HVDD) of the same molecule?
Answer: The value was 0.0000.

Question: What about the “Log2(fold change) Hexose” value (metabolite Hexose) of the same molecule?
Answer: Its value is 0.0000.

Question: What about the “Log2(fold change) Hydroxyisocaproic acid” value (metabolite Hydroxyisocaproic acid) of the same molecule?
Answer: The value was 0.0000.

Question: And the “Log2(fold change) IDP” value (metabolite IDP)?
Answer: Its value is 0.0737.

Question: What about the “Log2(fold change) IMP” value (metabolite IMP) of the same molecule?
Answer: The value was -0.0394.

Question: What about the “Log2(fold change) Inositol” value (metabolite Inositol) of the same molecule?
Answer: Its value is 0.0000.

Question: And the “Log2(fold change) Isopentyl-PP” value (metabolite Isopentyl-PP)?
Answer: The value was 0.0000.

Question: And the “Log2(fold change) L-arginino-succinate” value (metabolite L-arginino-succinate)?
Answer: Its value is -0.0233.

Question: What about the “Log2(fold change) LD” value (metabolite LD) of the same molecule?
Answer: Its value is 0.1467.

Question: And the “Log2(fold change) Myristoyl/tetradecanoyl-CoA” value (metabolite Myristoyl/tetradecanoyl-CoA)?
Answer: Its value is 0.0252.

Question: What about the “Log2(fold change) N-Acetyl-L-alanine” value (metabolite N-Acetyl-L-alanine) of the same molecule?
Answer: The value was 0.1261.

Question: And the “Log2(fold change) N-acetyl-L-ornithine” value (metabolite N-acetyl-L-ornithine)?
Answer: Its value is -0.0214.

Question: And the “Log2(fold change) N-acetyl-glucosamine-1/6-phosphate” value (metabolite N-acetyl-glucosamine-1/6-phosphate)?
Answer: The value was 0.0000.

Question: And the “Log2(fold change) N-acetyl-glutamate” value (metabolite N-acetyl-glutamate)?
Answer: The value was 0.0412.

Question: And the “Log2(fold change) N-acetyl-glutamine” value (metabolite N-acetyl-glutamine)?
Answer: Its value is 0.0000.

Question: And the “Log2(fold change) N-carbamoyl-L-aspartate” value (metabolite N-carbamoyl-L-aspartate)?
Answer: The value was 0.0625.

Question: What about the “Log2(fold change) NAD+” value (metabolite NAD+) of the same molecule?
Answer: Its value is -0.0154.

Question: And the “Log2(fold change) NADH” value (metabolite NADH)?
Answer: Its value is 0.0000.

Question: And the “Log2(fold change) NADP+” value (metabolite NADP+)?
Answer: The value was 0.0692.

Question: And the “Log2(fold change) NADPH” value (metabolite NADPH)?
Answer: Its value is -0.1981.

Question: What about the “Log2(fold change) O-acetyl-L-serine” value (metabolite O-acetyl-L-serine) of the same molecule?
Answer: The value was 0.0000.

Question: And the “Log2(fold change) Octoluse 8/1P” value (metabolite Octoluse 8/1P)?
Answer: The value was -0.0241.

Question: What about the “Log2(fold change) Octoluse Bisphosphate” value (metabolite Octoluse Bisphosphate) of the same molecule?
Answer: Its value is 0.0717.

Question: And the “Log2(fold change) PD” value (metabolite PD)?
Answer: Its value is 0.0223.

Question: What about the “Log2(fold change) PE” value (metabolite PE) of the same molecule?
Answer: Its value is 0.1349.

Question: And the “Log2(fold change) PEE” value (metabolite PEE)?
Answer: Its value is 0.2438.

Question: And the “Log2(fold change) PEEK” value (metabolite PEEK)?
Answer: The value was 0.3424.

Question: What about the “Log2(fold change) PVNF” value (metabolite PVNF) of the same molecule?
Answer: The value was 0.2854.

Question: What about the “Log2(fold change) Pyroglutamic acid” value (metabolite Pyroglutamic acid) of the same molecule?
Answer: Its value is -0.2488.

Question: And the “Log2(fold change) Pyrophosphate” value (metabolite Pyrophosphate)?
Answer: Its value is 0.0000.

Question: And the “Log2(fold change) Ribose-5-phosphate” value (metabolite Ribose-5-phosphate)?
Answer: Its value is 0.1278.

Question: What about the “Log2(fold change) S-adenosyl-L-homocysteine” value (metabolite S-adenosyl-L-homocysteine) of the same molecule?
Answer: Its value is -0.2617.

Question: What about the “Log2(fold change) S-adenosyl-L-methioninamine” value (metabolite S-adenosyl-L-methioninamine) of the same molecule?
Answer: The value was 0.0000.

Question: What about the “Log2(fold change) S-adenosyl-L-methionine” value (metabolite S-adenosyl-L-methionine) of the same molecule?
Answer: Its value is 0.0000.

Question: And the “Log2(fold change) S-methyl-5'-thioadenosine” value (metabolite S-methyl-5'-thioadenosine)?
Answer: Its value is 0.0070.

Question: What about the “Log2(fold change) SD” value (metabolite SD) of the same molecule?
Answer: The value was 0.1296.

Question: And the “Log2(fold change) SDL” value (metabolite SDL)?
Answer: Its value is 0.0391.

Question: What about the “Log2(fold change) SID” value (metabolite SID) of the same molecule?
Answer: The value was 0.2783.

Question: And the “Log2(fold change) Sedoheptulose bisphosphate” value (metabolite Sedoheptulose bisphosphate)?
Answer: The value was 0.1433.

Question: And the “Log2(fold change) Thiamine pyrophosphate” value (metabolite Thiamine pyrophosphate)?
Answer: Its value is 0.0526.

Question: And the “Log2(fold changes) UDP-D-glucose” value (metabolite UDP-D-glucose, log2 fold change)?
Answer: The value was 0.0961.

Question: And the “Log2(fold changes) UDP-D-glucuronate” value (metabolite UDP-D-glucuronate, log2 fold change)?
Answer: Its value is 0.1278.

Question: What about the “Log2(fold changes) UDP-N-acetyl-glucosamine” value (metabolite UDP-N-acetyl-glucosamine, log2 fold change) of the same molecule?
Answer: The value was 0.0189.

Question: What about the “Log2(fold changes) UDP” value (metabolite UDP, log2 fold change) of the same molecule?
Answer: Its value is -0.6136.

Question: What about the “Log2(fold changes) UMP” value (metabolite UMP, log2 fold change) of the same molecule?
Answer: Its value is -0.1186.

Question: And the “Log2(fold changes) UTP” value (metabolite UTP, log2 fold change)?
Answer: The value was 0.1051.

Question: And the “Log2(fold changes) VD” value (metabolite VD, log2 fold change)?
Answer: Its value is 0.0754.

Question: And the “Log2(fold changes) Xanthurenic acid” value (metabolite Xanthurenic acid, log2 fold change)?
Answer: The value was 0.0000.

Question: And the “Log2(fold changes) a-ketoglutarate” value (metabolite a-ketoglutarate, log2 fold change)?
Answer: The value was 0.1610.

Question: And the “Log2(fold changes) acetyl-CoA” value (metabolite acetyl-CoA, log2 fold change)?
Answer: Its value is 0.1670.

Question: What about the “Log2(fold changes) acetyl-aspartate” value (metabolite acetyl-aspartate, log2 fold change) of the same molecule?
Answer: Its value is 0.0000.

Question: What about the “Log2(fold changes) acetylphosphate” value (metabolite acetylphosphate, log2 fold change) of the same molecule?
Answer: The value was 0.0000.

Question: And the “Log2(fold changes) aconitate” value (metabolite aconitate, log2 fold change)?
Answer: The value was 0.1208.

Question: What about the “Log2(fold changes) adenine” value (metabolite adenine, log2 fold change) of the same molecule?
Answer: The value was 0.0000.

Question: And the “Log2(fold changes) adenosine 5'-phosphosulfate” value (metabolite adenosine 5'-phosphosulfate, log2 fold change)?
Answer: The value was 0.0000.

— PMC7031696 (Cell chemical biology, 2019)
